Measurements as given in patent US8163756B2 (priority 2004, dated 2012).

What was measured:
Type in all cases: biochemical
[1] = target: T1, Abl kinase (Homo sapiens, UniProt P00519); assay: Abl kinase assay A1 (pyruvate kinase/lactate dehydrogenase coupled, spectrophotometric); details: Method A1; read-out: Abl Data (IC50)
T1 sequence (P00519 229-512): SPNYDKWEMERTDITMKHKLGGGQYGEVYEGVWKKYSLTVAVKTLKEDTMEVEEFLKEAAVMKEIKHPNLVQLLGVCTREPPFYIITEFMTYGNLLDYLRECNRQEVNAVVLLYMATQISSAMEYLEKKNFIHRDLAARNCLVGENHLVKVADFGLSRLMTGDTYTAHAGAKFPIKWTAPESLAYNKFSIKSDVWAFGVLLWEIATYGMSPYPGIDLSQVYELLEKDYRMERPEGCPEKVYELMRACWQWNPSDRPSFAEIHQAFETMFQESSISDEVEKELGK
Method: (§1) IC50 values were calculated from a series of percent inhibition values determined at a range of inhibitor concentrations using software routines as implemented in the GraphPad Prism software package.

[2] = target: KDR kinase (Homo sapiens, UniProt P35968, DEL940-989/E990V); assay: KDR kinase assay K2 (as K1, 2.1 nM enzyme, 2 h pre-incubation, 1.0 mM ATP); details: Method K2; read-out: KDR Data (IC50)
Sequence of KDR kinase (P35968 with tags, fused parts or gaps DEL940-989/E990V): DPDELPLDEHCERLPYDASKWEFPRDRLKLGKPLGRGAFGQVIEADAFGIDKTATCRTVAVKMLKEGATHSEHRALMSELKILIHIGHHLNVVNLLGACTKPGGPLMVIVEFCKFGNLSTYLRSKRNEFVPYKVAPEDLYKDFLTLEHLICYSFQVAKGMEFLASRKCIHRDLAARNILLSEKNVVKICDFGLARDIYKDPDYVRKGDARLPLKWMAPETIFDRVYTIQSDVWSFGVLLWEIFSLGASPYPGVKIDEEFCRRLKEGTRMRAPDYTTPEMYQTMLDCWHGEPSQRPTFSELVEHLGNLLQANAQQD
Method: as §1

[3] = target: B-Raf(V599E) kinase (Homo sapiens, UniProt P15056, V600E); assay: B-Raf(V599E) kinase assay B1 (construct 1, MEK1 substrate, coupled spectrophotometric)
Sequence of B-Raf(V599E) kinase (P15056 with tags, fused parts or gaps V600E): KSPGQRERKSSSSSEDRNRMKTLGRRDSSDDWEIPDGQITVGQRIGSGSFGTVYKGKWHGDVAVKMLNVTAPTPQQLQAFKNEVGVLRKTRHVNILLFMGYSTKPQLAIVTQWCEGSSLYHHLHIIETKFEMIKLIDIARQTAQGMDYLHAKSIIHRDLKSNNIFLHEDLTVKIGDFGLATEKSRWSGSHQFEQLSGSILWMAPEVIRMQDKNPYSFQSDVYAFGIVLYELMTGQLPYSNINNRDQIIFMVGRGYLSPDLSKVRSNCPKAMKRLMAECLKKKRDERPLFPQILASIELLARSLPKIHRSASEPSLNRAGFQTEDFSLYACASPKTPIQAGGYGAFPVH
Method: The test compounds were incubated with the reaction mixtureat 30° C. for 2 h. […] The reaction rate was calculated using the […] time frame. […] IC50 values were calculated from a series of percent inhibition values determined at a range of inhibitor concentrations using software routines as implemented in the GraphPad Prism software package.

[4] = target: phosphorylated p-38-alpha kinase (Homo sapiens, UniProt Q16539); assay: P-38 alpha kinase assay P1 (coupled spectrophotometric, 2 h pre-incubation); details: method P1 (2 h pre-incubation); read-out: P-38 Data
Sequence of phosphorylated p-38-alpha kinase (Q16539 1-360 isoform Q16539-2): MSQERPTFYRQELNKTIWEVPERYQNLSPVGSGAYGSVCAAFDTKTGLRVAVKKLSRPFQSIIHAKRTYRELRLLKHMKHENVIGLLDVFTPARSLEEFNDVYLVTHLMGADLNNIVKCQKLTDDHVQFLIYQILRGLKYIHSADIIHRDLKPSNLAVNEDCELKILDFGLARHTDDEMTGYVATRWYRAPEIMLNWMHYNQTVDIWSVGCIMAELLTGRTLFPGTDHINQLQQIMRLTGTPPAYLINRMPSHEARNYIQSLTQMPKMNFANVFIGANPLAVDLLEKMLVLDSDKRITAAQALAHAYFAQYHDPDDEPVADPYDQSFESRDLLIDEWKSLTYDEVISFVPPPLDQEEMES

Structure (SMILES) | IC50 [1] [nM] | IC50 [2] [nM] | IC50 [3] [nM] | IC50 [4] [nM]
CC(C)(C)c1cc(NC(=O)Nc2cc(F)c(F)cc2F)n(-c2ccc3ncccc3c2)n1 [Example 53, 1-(3-t-butyl-1-(quinolin-6-yl)-1H-pyrazol-5-yl)-3-(2,4,5-trifluorophenyl)urea] | 360 | 490 | 4.5 | –
CC(C)(C)c1cc(NC(=O)Nc2ccc(F)c(F)c2F)n(-c2cccc(C#N)c2)n1 [Example 210, 1-(3-t-butyl-1-(3-cyanophenyl)-1H-pyrazol-5-yl)-3-(2,3,4-trifluorophenyl)urea] | – | 110 | – | 24
CC(C)(C)c1cc(NC(=O)Nc2cccc3ccccc23)n(-c2ccc3c(c2)CNCC3)n1 [Example 349] | – | 4100 | – | 30
CC(C)(C)c1cc(NC(=O)Nc2cc(F)ccc2F)n(-c2cccc(C#N)c2)n1 [Example 213, 1-(3-t-butyl-1-(3-cyanophenyl)-1H-pyrazol-5-yl)-3-(2,5-difluorophenyl)urea] | – | 210 | 12 | 67
CC(C)(C)c1cc(NC(=O)Nc2cccc(Cl)c2Cl)n(-c2cccc(CC(=O)N3CCS(=O)(=O)CC3)c2)n1 [Example 396, 1-(3-t-butyl-1-{3-[2-(1,1-dioxo-1[…]6-thiomorpholin-4-yl)-2-oxoethyl]phenyl}-1H-pyrazol-5-yl)-3-(2,3-dichlorophenyl)urea] | – | 3100 | 32 | –
CC(C)(C)c1cc(NC(=O)Nc2ccccc2F)n(-c2cccc(CCC(=O)O)c2)n1 [Example 265, 3-(3-{3-t-butyl-5-[3-(2-fluorophenyl)ureido]-1H-pyrazol-1-yl}-phenyl)propionic acid] | – | 9800 | 14 | –
CC(C)(C)c1cc(NC(=O)Nc2cccc(F)c2F)n(-c2ccc(CC(=O)O)cc2)n1 [Example 382, 2-(4-(3-t-butyl-5-(3-(2,3-difluorophenyl)ureido)-1H-pyrazol-1-yl)phenyl)acetic acid] | – | 10300 | 77 | –
CC(C)(C)c1cc(NC(=O)Nc2cccc(F)c2F)n(-c2cccc(C#N)c2)n1 [Example 4, 1-[3-t-butyl-1-(3-cyan-phenyl)-1H-pyrazol-5-yl]-3-(2,3-difluorophenyl)urea] | 2900 | 310 | – | –
COc1cccc(-n2nc(C(C)(C)C)cc2NC(=O)Nc2ccc(Cl)cc2Cl)c1 [Example 233, 1-(3-t-butyl-1-(3-methoxyphenyl)-1H-pyrazol-5-yl)-3-(2,4-dichlorophenyl)urea] | – | 410 | 28 | 50
CC(C)(C)c1cc(NC(=O)Nc2cccc3ccccc23)n(-c2cccc(CCO)c2)n1 [Example 341, 1-{3-t-butyl-1-[3-(2-hydroxyethyl)phenyl]-1H-pyrazol-5-yl}-3-(naphthalen-1-yl)urea] | – | 5500 | – | 27
Cn1[nH]c(=O)n(Cc2cccc(-n3nc(C(C)(C)C)cc3NC(=O)Nc3cccc(Cl)c3Cl)c2)c1=O [Example 268, 1-{5-t-butyl-2-[3-(1-methyl-3,5-dioxo-[1,2,4]triazolidin-4-ylmethyl)-phenyl]-2H-pyrazol-3-yl}-3-(2,3-dichloro-phenyl)-urea] | – | 2600 | 11 | –
CC(C)(C)c1cc(NC(=O)Nc2cc(F)c(F)cc2F)n(-c2ccc3c(c2)CCN3S(C)(=O)=O)n1 [Example 110, 1-(3-t-butyl-1-(1-(methylsulfonyl)indolin-5-yl)-1H-pyrazol-5-yl)-3-(2,4,5-tri-fluorophenyl)urea] | 360 | 140 | 3.4 | –
CCOC(=O)C1CCN(C(=O)Cc2ccc(-n3nc(C(C)(C)C)cc3NC(=O)Nc3cccc(Cl)c3Cl)cc2)CC1 [Example 497] | – | 1200 | 47 | –
COc1ccc(-n2nc(C(C)(C)C)cc2NC(=O)Nc2ccccc2F)cc1 [Example 237, 1-[3-t-butyl-1-(4-methoxyphenyl)-1H-pyrazol-5-yl]-3-(2-fluorophenyl)urea] | – | 4900 | 59 | 580
CCOC(=O)C1CCCN(C(=O)Cc2cccc(-n3nc(C(C)(C)C)cc3NC(=O)Nc3cccc(Cl)c3Cl)c2)C1 (stereo not shown) [Example 397, ethyl 1-[2-(3-{3-t-butyl-5-[3-(2,3-dichlorophenyl)ureido]-1H-pyrazol-1-yl}phenyl)acetyl]piperidine-3-carboxylate] | – | 3400 | 57 | –
CC(C)(C)c1cc(NC(=O)Nc2cc(F)c(F)cc2F)n(-c2ccc3[nH]c(=O)ccc3c2)n1 [Example 330] | – | 390 | 3.2 | –
COc1ccc(-n2nc(C(C)(C)C)cc2NC(=O)Nc2cccc(Cl)c2)cc1 [Example 240, 1-[3-t-butyl-1-(4-methoxyphenyl)-1H-pyrazol-5-yl]-3-(3-chlorophenyl)urea] | – | 3700 | 50 | 470
CC(C)(C)c1cc(NC(=O)Nc2ccc(Cl)cc2)n(-c2cccc(CN3C(=O)C(=O)NS3(=O)=O)c2)n1 [Example 225, 1-{5-t-butyl-2-[3-(1,1,3,4-tetraoxo-1λ^6-[1,2,5]thiadiazolidin-2-ylmethyl)phenyl]-2H-pyrazol-3-yl}-3-(4-chlorophenyl)urea] | – | 9600 | 170 | –
CC(C)(C)c1cc(NC(=O)Nc2cccc(Cl)c2Cl)n(-c2cccc(CC(=O)N3CCCC(C(=O)O)C3)c2)n1 (stereo not shown) [Example 398, 1-[2-(3-{3-t-butyl-5-[3-(2,3-dichlorophenyl)-ureido]-1H-pyrazol-1-yl}-phenyl)acetyl]piperidine-3-carboxylic acid] | – | 2700 | 12 | 26
CC(C)(C)c1cc(NC(=O)Nc2cc(F)c(F)c(F)c2)n(-c2cccc(C#N)c2)n1 [Example 12, 1-(3-t-butyl-1-(3-cyanophenyl)-1H-pyrazol-5-yl)-3-(3,4,5-trifluorophenyl)urea] | 390 | 280 | – | –
CC(C)(C)c1cc(NC(=O)Nc2cccc(F)c2F)n(-c2ccc3ncccc3c2)n1 [Example 283, 1-(3-t-butyl-1-(quinolin-6-yl)-1H-pyrazol-5-yl)-3-(2,3-difluorophenyl)urea] | – | 440 | 6.4 | –
CC(C)(C)c1cc(NC(=O)Nc2cccc(Cl)c2Cl)n(-c2cccc(CC(=O)N3CCC[C@@H]3C(=O)O)c2)n1 [Example 400, (2R)-1-[2-(3-{3-t-butyl-5-[3-(2,3-dichlorophenyl)ureido]-1H-pyrazol-1-yl}phenyl)acetyl]pyrrolidine-2-carboxylic acid] | – | 3700 | 19 | 46
CC(C)(C)c1cc(NC(=O)Nc2cccc(Cl)c2Cl)n(-c2cccc(Br)c2)n1 [Example 49, 1-(1-(3-bromophenyl)-3-t-butyl-1H-pyrazol-5-yl)-3-(2,3-dichlorophenyl)urea] | – | 86 | 3.8 | –
CC(C)(C)c1cc(NC(=O)Nc2cccc(Cl)c2Cl)n(-c2ccc(CC(=O)N3CCC(C(=O)O)CC3)cc2)n1 [Example 498, 1-[2-(4-{3-t-butyl-5-[3-(2,3-dichlorophenyl)ureido]-1H-pyrazol-1-yl}-phenyl)acetyl]piperidine-4-carboxylic acid] | – | 1700 | 52 | 9
CC(C)(C)c1cc(NC(=O)Nc2cccc(F)c2F)n(-c2ccc(CCO)cc2)n1 [Example 262, 1-(3-t-butyl-1-(4-(2-hydroxyethyl)phenyl)-1H-pyrazol-5-yl)-3-(2,3-difluoro-phenyl)urea] | – | 2700 | 34 | –
CC(C)(C)c1cc(NC(=O)Nc2cccc3ccccc23)n(-c2ccc3c(c2)CCC(=O)N3)n1 [Example 198, 1-(3-t-butyl-1-(2-oxo-1,2,3,4-tetrahydroquinolin-6-yl)-1H-pyrazol-5-yl)-3-(naphthalen-1-yl)urea] | – | 1300 | – | 59
CC(C)(C)c1cc(NC(=O)Nc2cccc(Cl)c2Cl)n(-c2cccc(CC(=O)N3CCC(C(=O)O)CC3)c2)n1 [Example 345, 1-[2-(3-{3-t-butyl-5-[3-(2,3-dichlorophenyl)ureido]-1H-pyrazol-1-yl}phenyl)acetyl]piperidine-4-carboxylic acid] | – | 2900 | – | 19
CC(C(N)=O)c1cccc(-n2nc(C(C)(C)C)cc2NC(=O)Nc2cccc(Cl)c2Cl)c1 (stereo not shown) [Example 249, 1-(1-(3-(1-amino-1oxopropan-2-yl)phenyl)-3-t-butyl-1H-pyrazol-5-yl)-3-(2,3-dichlorophenyl)urea] | – | 590 | 4.5 | 11
CC(C)(C)c1cc(NC(=O)Nc2ccc(F)c(F)c2F)n(-c2ccc3[nH]c(=O)ccc3c2)n1 [Example 333, 1-(3-t-butyl-1-(2-oxo-1,2-dihydroquinolin-6-yl)-1H-pyrazol-5-yl)-3-(2,3,4-trifluorophenyl)urea] | – | 230 | 3.4 | –
CC(C)(C)c1cc(NC(=O)Nc2ccc(Cl)cc2)n(-c2cnc3ccccc3c2)n1 [Example 56, 1-(3-t-butyl-1-(quinolin-3-yl)-1H-pyrazol-5-yl)-3-(4-chlorophenyl)urea] | 4800 | 3100 | – | –
